Where “and” joins values, the source holds several entries; their conditions need not be identical. Equal entries are not always repeated. Toxic doses and inconclusive results are not listed. How the source made its calls: active means survival T/C of 150% or more; inactive means T/C below 125% in these data.
System: BDF1 mice, B16 melanoma ip, median survival T/C
Test: NCI In Vivo Anticancer Drug Screen. Data for tumor model B16 Melanoma (intraperitoneal) in B6D2F1 (BDF1) mice
Settings: endpoint: median survival time, higher = longer survival
Outline: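 In this screen, activity was judged from survival or tumor size in treated versus vehicle-treated tumor-bearing mice, reported as T/C.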

[1] = dose: 50.0 mg/kg/injection, schedule: Q01DX009 (ip), vehicle: Klucel (hydroxypropylcellulose) (HPC)
[2] = dose: 100.0 mg/kg/injection, schedule: Q01DX009 (ip), vehicle: Klucel (hydroxypropylcellulose) (HPC)
[3] = dose: 200.0 mg/kg/injection, schedule: Q01DX009 (ip), vehicle: Klucel (hydroxypropylcellulose) (HPC)
[4] = dose: 50.0 mg/kg/injection, schedule: Q01DX009 (ip), vehicle: saline with Tween-80
[5] = dose: 100.0 mg/kg/injection, schedule: Q01DX009 (ip), vehicle: saline with Tween-80
[6] = dose: 200.0 mg/kg/injection, schedule: Q01DX009 (ip), vehicle: saline with Tween-80
[7] = dose: 6.25 mg/kg/injection, schedule: Q01DX009 (ip), vehicle: saline
[8] = dose: 12.5 mg/kg/injection, schedule: Q01DX009 (ip), vehicle: saline
[9] = dose: 25.0 mg/kg/injection, schedule: Q01DX009 (ip), vehicle: saline
[10] = dose: 50.0 mg/kg/injection, schedule: Q01DX009 (ip), vehicle: saline

Measured: T/C

Cc1ccc(Nc2nnc(N=Nc3ccccc3)s2)cc1C
inactive: [1] 86 % of control | [2] 91 % of control | [3] 91 % of control

COC(CCCl)c1ccc(Cl)cc1 (stereo not drawn)
inactive: [4] 102 % of control | [5] 97 % of control | [6] 87 % of control

Cc1ccc2c(c1)P(=O)(O)c1cc(Cl)ccc1O2
inactive: dose: 86.4 mg/kg/injection, schedule: Q01DX009 (ip), vehicle: water 100 % of control | dose: 144.0 mg/kg/injection, schedule: Q01DX009 (ip), vehicle: water 94 % of control | dose: 240.0 mg/kg/injection, schedule: Q01DX009 (ip), vehicle: water 101 % of control | dose: 259.0 mg/kg/injection, schedule: Q04DX003 (ip), vehicle: water 123 % of control | dose: 400.0 mg/kg/injection, schedule: Q01DX009 (ip), vehicle: water 98 % of control | dose: 432.0 mg/kg/injection, schedule: Q04DX003 (ip), vehicle: water 88 % of control

NC(=S)SCCC(=O)O
inactive: [2] 96 % of control | [3] 86 % of control

OCCOCCN1CCN(C(c2ccccc2)c2ccc(Cl)cc2)CC1 (stereo not drawn)
inactive: dose: 3.12 mg/kg/injection, schedule: Q01DX009 (ip), vehicle: saline 97 % of control | [7] 102 % of control | [8] 105 % of control | [9] 97 % of control | [10] 100 % of control | dose: 100.0 mg/kg/injection, schedule: Q01DX009 (ip), vehicle: saline 102 % of control

COc1cc2c(c(OC)c1OC)-c1cc3c(cc1[C@@H](OC(C)=O)[C@@H]1COC(=O)[C@H]1C2)OCO3
inactive: dose: 1.25 mg/kg/injection, schedule: Q01DX009 (ip), vehicle: Klucel (hydroxypropylcellulose) (HPC) 104 % of control | dose: 2.5 mg/kg/injection, schedule: Q01DX009 (ip), vehicle: Klucel (hydroxypropylcellulose) (HPC) 94 % of control | dose: 5.0 mg/kg/injection, schedule: Q01DX009 (ip), vehicle: Klucel (hydroxypropylcellulose) (HPC) 104 % of control | dose: 10.0 mg/kg/injection, schedule: Q01DX009 (ip), vehicle: Klucel (hydroxypropylcellulose) (HPC) 102 % of control

COc1cc(C(O)C(Cl)(Cl)Cl)ccc1O (stereo not drawn)
inactive: dose: 100.0 mg/kg/injection, schedule: Q01DX009 (ip), vehicle: other 94 % of control | dose: 200.0 mg/kg/injection, schedule: Q01DX009 (ip), vehicle: other 91 % of control

O=c1cc(-c2ccccc2)nc(Nc2nc3ccc([N+](=O)[O-])cc3[nH]2)[nH]1
inactive: dose: 25.0 mg/kg/injection, schedule: Q01DX009 (ip), vehicle: Klucel (hydroxypropylcellulose) (HPC) 102 % of control | [1] 90 % of control | [2] 98 % of control and 103 % of control

N#CCN1CCCN(CC#N)C1
inactive: dose: 75.0 mg/kg/injection, schedule: Q01DX009 (ip), vehicle: Klucel (hydroxypropylcellulose) (HPC) 96 % of control

O=C(O)C(=O)O
inactive: [7] 101 % of control | [8] 105 % of control | [9] 96 % of control and 108 % of control | [10] 95 % of control

CCC(=O)/C=C/C1=C(C)CCCC1(C)C
inactive: [4] 104 % of control | [5] 103 % of control | [6] 92 % of control

CCc1nc(N)nc(N)c1-c1ccc(Cl)cc1
inactive: dose: 4.0 mg/kg/injection, schedule: Q01DX009 (ip), vehicle: Klucel (hydroxypropylcellulose) (HPC) 93 % of control | dose: 4.0 mg/kg/injection, schedule: Q01DX009 (oral), vehicle: Klucel (hydroxypropylcellulose) (HPC) 102 % of control | dose: 4.0 mg/kg/injection, schedule: Q01DX009 (sc), vehicle: Klucel (hydroxypropylcellulose) (HPC) 90 % of control | dose: 4.0 mg/kg/injection, schedule: Q06HX004 (ip), vehicle: Klucel (hydroxypropylcellulose) (HPC) 107 % of control | dose: 4.0 mg/kg/injection, schedule: Q06HX008 (ip), vehicle: Klucel (hydroxypropylcellulose) (HPC) 91 % of control | dose: 8.0 mg/kg/injection, schedule: Q01DX009 (ip), vehicle: Klucel (hydroxypropylcellulose) (HPC) 95 % of control | dose: 8.0 mg/kg/injection, schedule: Q01DX009 (oral), vehicle: Klucel (hydroxypropylcellulose) (HPC) 100 % of control | dose: 8.0 mg/kg/injection, schedule: Q01DX009 (sc), vehicle: Klucel (hydroxypropylcellulose) (HPC) 92 % of control | dose: 8.0 mg/kg/injection, schedule: Q06HX004 (ip), vehicle: Klucel (hydroxypropylcellulose) (HPC) 90 % of control | dose: 8.0 mg/kg/injection, schedule: Q06HX008 (ip), vehicle: Klucel (hydroxypropylcellulose) (HPC) 104 % of control | dose: 8.0 mg/kg/injection, schedule: Q06HX012 (ip), vehicle: Klucel (hydroxypropylcellulose) (HPC) 100 % of control | dose: 16.0 mg/kg/injection, schedule: Q01DX001 (ip), vehicle: Klucel (hydroxypropylcellulose) (HPC) 96 % of control | dose: 16.0 mg/kg/injection, schedule: Q01DX001 (oral), vehicle: Klucel (hydroxypropylcellulose) (HPC) 106 % of control | dose: 16.0 mg/kg/injection, schedule: Q01DX001 (sc), vehicle: Klucel (hydroxypropylcellulose) (HPC) 113 % of control | dose: 16.0 mg/kg/injection, schedule: Q01DX009 (ip), vehicle: Klucel (hydroxypropylcellulose) (HPC) 113 % of control | dose: 16.0 mg/kg/injection, schedule: Q01DX009 (oral), vehicle: Klucel (hydroxypropylcellulose) (HPC) 113 % of control | dose: 16.0 mg/kg/injection, schedule: Q01DX009 (sc), vehicle: Klucel (hydroxypropylcellulose) (HPC) 98 % of control | dose: 16.0 mg/kg/injection, schedule: Q04DX003 (ip), vehicle: Klucel (hydroxypropylcellulose) (HPC) 86 % of control | dose: 16.0 mg/kg/injection, schedule: Q06HX004 (ip), vehicle: Klucel (hydroxypropylcellulose) (HPC) 98 % of control | dose: 16.0 mg/kg/injection, schedule: Q06HX008 (ip), vehicle: Klucel (hydroxypropylcellulose) (HPC) 108 % of control | dose: 16.0 mg/kg/injection, schedule: Q06HX012 (ip), vehicle: Klucel (hydroxypropylcellulose) (HPC) 87 % of control | dose: 16.0 mg/kg/injection, schedule: Q08DX002 (ip), vehicle: Klucel (hydroxypropylcellulose) (HPC) 87 % of control | dose: 32.0 mg/kg/injection, schedule: Q01DX001 (ip), vehicle: Klucel (hydroxypropylcellulose) (HPC) 96 % of control | dose: 32.0 mg/kg/injection, schedule: Q01DX001 (oral), vehicle: Klucel (hydroxypropylcellulose) (HPC) 104 % of control | dose: 32.0 mg/kg/injection, schedule: Q01DX001 (sc), vehicle: Klucel (hydroxypropylcellulose) (HPC) 117 % of control | dose: 32.0 mg/kg/injection, schedule: Q01DX009 (ip), vehicle: Klucel (hydroxypropylcellulose) (HPC) 102 % of control | dose: 32.0 mg/kg/injection, schedule: Q01DX009 (oral), vehicle: Klucel (hydroxypropylcellulose) (HPC) 120 % of control | dose: 32.0 mg/kg/injection, schedule: Q01DX009 (sc), vehicle: Klucel (hydroxypropylcellulose) (HPC) 103 % of control | dose: 32.0 mg/kg/injection, schedule: Q04DX003 (ip), vehicle: Klucel (hydroxypropylcellulose) (HPC) 100 % of control | dose: 32.0 mg/kg/injection, schedule: Q06HX008 (ip), vehicle: Klucel (hydroxypropylcellulose) (HPC) 100 % of control | dose: 32.0 mg/kg/injection, schedule: Q08DX002 (ip), vehicle: Klucel (hydroxypropylcellulose) (HPC) 102 % of control | dose: 64.0 mg/kg/injection, schedule: Q01DX001 (sc), vehicle: Klucel (hydroxypropylcellulose) (HPC) 117 % of control | dose: 64.0 mg/kg/injection, schedule: Q01DX009 (sc), vehicle: Klucel (hydroxypropylcellulose) (HPC) 101 % of control | dose: 64.0 mg/kg/injection, schedule: Q04DX003 (ip), vehicle: Klucel (hydroxypropylcellulose) (HPC) 100 % of control | dose: 64.0 mg/kg/injection, schedule: Q08DX002 (ip), vehicle: Klucel (hydroxypropylcellulose) (HPC) 100 % of control | dose: 128.0 mg/kg/injection, schedule: Q01DX001 (sc), vehicle: Klucel (hydroxypropylcellulose) (HPC) 106 % of control

Reference: PubChem BioAssay AID192 (DTP/NCI, 2004)
